# Measurements: publication PMC9979163, “Discovery and functional characterization of N-(thiazol-2-yl)-benzamide analogs as the first class of selective antagonists of the Zinc-Activated Channel (ZAC)” (Biochemical pharmacology, 2021)
# Tests used:
# [1] = biological target: T1, ZAC (Homo sapiens, UniProt Q401N2); test: TEVC recordings, H+-evoked currents at ZAC expressed in Xenopus oocytes; assay type: cell-based
# T1 sequence (Q401N2 26-412): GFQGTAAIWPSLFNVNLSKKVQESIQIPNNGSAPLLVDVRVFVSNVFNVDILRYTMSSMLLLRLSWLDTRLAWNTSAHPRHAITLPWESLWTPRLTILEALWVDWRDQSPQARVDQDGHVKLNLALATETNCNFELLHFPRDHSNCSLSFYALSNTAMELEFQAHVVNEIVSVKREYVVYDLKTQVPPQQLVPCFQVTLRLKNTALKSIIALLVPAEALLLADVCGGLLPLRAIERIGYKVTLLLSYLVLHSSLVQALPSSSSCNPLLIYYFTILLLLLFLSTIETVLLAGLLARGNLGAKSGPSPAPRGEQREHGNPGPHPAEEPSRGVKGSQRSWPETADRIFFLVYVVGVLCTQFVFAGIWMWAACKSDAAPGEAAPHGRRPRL
# Description: (§1) The cDNAs for the various WT and chimeric CLR subunits were linearized and subsequently transcribed and capped mMessage mMachine T7 RNA transcription kit (Ambion, Waltham, MA). […]
# (§2) On the day of experiment, all compound dilutions were prepared in a saline solution [115 mM NaCl, 2.5 mM KCl, 10 mM MOPS (pH 7.5), 1.8 mM CaCl2, 0.1 mM MgCl2] and pH adjusted to 7.5 (if needed). […] Currents were recorded using pCLAMP 10 (Molecular Devices, Sunnyvale, CA). […]
# (§3) In all recordings, the compounds or compound combinations were applied in the bath until the peak current decayed to a steady state (up to 30 sec at the most). […] The functional properties of the modulators at the CLRs were determined by pre-application of the modulator to the perfusate 30 sec and followed by co-application of the modulator and the agonist to the perfusate. […]
# (§4) Data analysis of the results from the TEVC recordings were performed using Clampfit software version 10.5 (Molecular Devices, Crawley, UK) and GraphPad Prism version 7.0c (GraphPad Software, Inc. La Jolla, CA). […] I-V relationships were analyzed by fitting the curves with a third order polynomial model. […]
# [2] = biological target: T2, m5-HT3AR (Mus musculus, UniProt P23979); test: TEVC selectivity, m5-HT3AR in oocytes; assay type: cell-based; conditions: 30 μM, 30 s preapplication, 2 μM 5-HT (EC20–EC40)
# T2 sequence (P23979 24-489): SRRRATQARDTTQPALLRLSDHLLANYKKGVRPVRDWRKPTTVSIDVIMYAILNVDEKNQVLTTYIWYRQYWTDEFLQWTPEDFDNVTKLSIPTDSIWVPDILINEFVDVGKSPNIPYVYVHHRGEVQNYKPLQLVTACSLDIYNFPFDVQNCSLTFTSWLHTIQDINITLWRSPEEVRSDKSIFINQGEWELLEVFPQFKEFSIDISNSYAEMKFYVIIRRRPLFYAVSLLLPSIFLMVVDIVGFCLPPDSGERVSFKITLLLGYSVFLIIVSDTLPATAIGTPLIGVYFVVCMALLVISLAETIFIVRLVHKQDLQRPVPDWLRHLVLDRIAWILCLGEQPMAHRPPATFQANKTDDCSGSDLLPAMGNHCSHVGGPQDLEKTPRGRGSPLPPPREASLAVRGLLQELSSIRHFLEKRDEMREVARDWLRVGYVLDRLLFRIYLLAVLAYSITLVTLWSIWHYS
# Description: as §1, §2, §3, §4
smiles,measurement,setting,value
"CC(C)(C)c1csc(NC(=O)c2cccc(F)c2)n1 [5a, N-(4-(tert-butyl)thiazol-2-yl)-3-fluorobenzamide]",Voltage dependence of ZAC inhibition,"[1]; 10 μM, H+ (pH 6.5)-evoked currents, −60 mV and +60 mV",voltage-independent
same,IC50,"[1]; H+ (pH 6.0) as agonist, TEVC, steady-state current, n = 6",8.5 µM
same,"Agonist, antagonist or PAM activity",[2],did not display significant activity
